Source: patent publication US12576048B2, “Anti-cancer activity of adamantane derivatives” (The Regents of the University of California, priority 2018, dated 2026)

Tests used:
[1] = system: B16-OVA melanoma; test: MTT proliferation assay, B16-OVA (Example 2); format: cell-based, murine; settings: 48 hours; FIG. 16A
[2] = system: CAL-27 squamous cell carcinoma cell line; test: MTT proliferation assay, CAL-27; format: cell-based, human
[3] = system: AT-84 E7 squamous cell carcinoma; test: MTT proliferation assay, AT-84-E7 (Example 2); format: cell-based, murine; settings: 48 hours; FIG. 16B
[4] = system: B16-OVA melanoma tumor line; test: MHC Class I expression in B16-OVA by flow cytometry (Example 2); format: cell-based, murine; settings: 24 hours at indicated concentrations; FIG. 15
[5] = system: MOSCC3 squamous cell carcinoma; test: MTT proliferation assay, MOSCC3 (Example 2); format: cell-based, murine; settings: 48 hours; FIG. 16C
[6] = system: SCC-47 squamous cell carcinoma cell line; test: MTT proliferation assay, SCC-47; format: cell-based, human; settings: rimantadine alone; FIG. 13
Method: (§1) FIG. 13 has plots showing the effect of rimantadine on human HNSCC lines as labeled. BrdU cell cycle analysis (upper) and MTT proliferation assay (lower).
(§2) Cell cycle progression was analyzed on the basis of BrdU incorporation following […] cell staining with BrdU-APC and 7-AAD using BD Pharmingen BrdU Flow Kit. (BD, Franklin Lakes, NJ) according to the manufacture's protocol. Cells were analyzed using flow cytometry. Cell proliferation was assessed by using MTT [3-(4,5-dimethylthiazol-2-yl)-2,5-diphenyltetrazolium bromide]. First, cells were seeded in 96-well plate and cultured for 2-3 days. Next, culture media was replaced with fresh media containing 0.5 mg/ml of MTT (Sigma) and the plates were incubated for 4 hours at 37° C. Then, purple formazan crystals were dissolved in lysis buffer (4 mM HCl and 0.1% NP-40 in isopropanol) and the absorbance was recorded on a TECAN infinite M200 microplate reader (Tecan, Männedorf, Switzerland) at a wavelength of 570 nm with absorbance at 650 nm as reference.

[7] = system: E5-positive AT-84-E7
[8] = system: CAL-33 squamous cell carcinoma cell line; test: BrdU cell cycle analysis, CAL-33; format: cell-based, human; settings: rimantadine alone; FIG. 13
Method: as §1, §2

[9] = system: CAL-27 squamous cell carcinoma cell line; test: BrdU cell cycle analysis, CAL-27; format: cell-based, human; settings: rimantadine alone; FIG. 13
Method: as §1, §2

[10] = system: 4MOSC1 tumor cells; test: Tumor volume in mice inoculated with 4MOSC1 tumor cells (orthotopic HNSCC model); format: in vivo; settings: 10 mg/kg IP once daily, 7 injections once tumors palpable; FIG. 1D
Method: (§3) FIGS. 1A-1E are plots showing the effects of rimantadine or PEGylated rimantidine on tumor volume in different cancer models.
(§4) Mice were injected subcutaneously with 1.0 to 5.0×10^5 AT-84-E7, 1.5×10^5 B16-OVA, or 5.0×10^5 4T1 cells resuspended in 100 μl of PBS in the right flank. For orthotopic models, 1.0×10^5 AT-84-E7 or 1.0×10^6 4MOSC1 in 30 μl of PBS were injected into tongue. Tumor diameter was measured every 2 to 3 days with an electronic caliper and reported as volume using the formula; tumor volume (mm3)=(length×width2)/2. Once tumors become palpable, mice were treated with 200 μg of anti-PD-L1 antibody (BioXcell, West Lebanon, NH) via IP injection every 3 days for a total of three or four injections per mouse, or mice were treated with 10 mg/kg body weight of rimantadine (Sigma, St. Louis, MO) via IP injection daily for 7 days. For adoptive transfer experiments, first, single-cell suspension of spleen from OT-1 mice were cultured in media containing 10 ng/ml OVA SIINFEKL peptide (InvivoGen, San Diego, CA) and 2 ng/ml recombinant IL-2 (PeproTech, Rocky Hill, NJ) […], and then 4.0×10^6 cells were intravenously injected into B16-OVA-bearing mice.

[11] = system: AT-84-E7 tumors which didn't express E5; test: Tumor volume in mice inoculated with AT-84-E7 cells not expressing E5 (empty vector); format: in vivo; settings: rimantadine for one week; FIG. 2A vs 2B
Method: FIGS. 2A and 2B are plots showing the effects of rimantadine on tumor.
as §4

[12] = system: 4T1 tumor cells; test: Tumor volume in mice inoculated with 4T1 tumor cells; format: in vivo; settings: 10 mg/kg IP once daily, 7 injections starting on day 6; FIG. 1C
Method: as §3, §4

[13] = system: B16-OVA cells co-cultured with B3Z cells; test: B3Z activation assay; format: cell-based; settings: 100 μM rimantadine 24 hours, then 24 hours co-culture; FIG. 5
Method: FIG. 5 is a plot showing B3Z activation after rimantadine treatment (48 hours).
B16-OVA cells were seeded into 96-well plate and treated with 100 μM rimantadine for 24 hours, prior to addition of B3Z cells. After 24 hours of co-culture, medium was removed and 100 μl of lysis buffer [0.155 mM chlorophenol red β-D-galactopyranoside (CPRG) (Roche), 0.125% Nonidet P-40 Alternative (EMD-Calbiochem), and 9 mM MgCl2 (Sigma) in PBS] was added. After incubation for 4 hours at 37° C., the absorbance at 570 nm was determined on a TECAN infinite M200 microplate reader.

[14] = system: murine and human cell lines engineered to express HPV16 E5; format: cell-based; settings: 24 hours; FIG. 14
[15] = system: AT-84-E7 and B16-OVA models; test: Cell proliferation assay (MTT), FIG. 9; format: cell-based; settings: 48 hours
Method: FIG. 9 has plots showing the cell proliferation assay (MTT), which was analyzed 48 hours following treatment with rimantadine.
as §2

[16] = system: T cells; test: T-cell proliferation assay using CFSE-labeled T-cells; format: cell-based; settings: FIGS. 10A and 10B
Description: FIGS. 10A and 10B are plots showing T-cell proliferation assay using CFSE-labeled T-cells simulated to proliferate in the presence or absence of rimantadine.

[17] = system: Tau; test: Tau mRNA expression by RT-qPCR; format: cell-based; settings: 24 hours; FIGS. 12A and B
Method: FIGS. 12A and 12B are plots showing Tau mRNA expression, which was analyzed 24 hours following treatment with rimantadine.
(§5) Total RNA were extracted using TRIzol Reagent (Invitrogen) and reverse transcribed with qScript cDNA Synthesis Kit (Quanta BioSciences, Beverly, MA) according to the manufacturer's instructions. Quantitative PCR analysis were conducted by using KAPA SYBR […] FAST (KAPA Biosystems, Wilmington, MA) on the 7900HT Fast Real-Time PCR System (Applied Biosystems, Foster City, CA).

[18] = system: SCC-47 squamous cell carcinoma cell line; test: BrdU cell cycle analysis, SCC-47; format: cell-based, human; settings: rimantadine alone; FIG. 13
Method: as §1, §2

[19] = system: B16-OVA tumor cells; test: Tumor volume in mice inoculated with B16-OVA tumor cells; format: in vivo; settings: 10 mg/kg IP once daily, 7 injections starting on day 10; FIG. 1B, 1E
Method: as §3, §4

[20] = system: Stathmin; test: Stathmin mRNA expression by RT-qPCR; format: cell-based; settings: 24 hours
Method: FIGS. 11A and 11B are plots showing Stathmin mRNA expression, which was analyzed 24 hours following treatment with rimantadine in AT-84-E7 cells and B16-OVA cells, respectively.
as §5

[21] = system: multiple cell lines (AT-84-E7, B16-OVA, 4T1, B16, MC38); settings: rimantadine 100 μM, 48 hours or 24 hours; FIGS. 3A-3E, 4A-D
Method: FIGS. 3A-3E are plots showing MHC I expression or antigen-presentation (H-2Kb/[sequence]) as analyzed by flow cytometry after rimantadine treatment (100 μM, 48 hours). FIG. 3A is a plot showing MHC I expression for the AT-84-E7 model. FIG. 3B is a plot showing MHC I expression for the B16-OVA model. FIG. 3C is a plot showing antigen-presentation (H-2Kb/[sequence]) for the B16-OVA model. FIG. 3D is a plot showing MHC I expression for the 4T1 model.
FIGS. 4A-4D are plots showing MHC expression in tumor cells. FIGS. 4A and 4B show MHC I expression analyzed by flow cytometry 48 hours after rimantadine treatment for B16 and MC38 cells, respectively. FIGS. 4C and 4D are plots showing expression of MHC I and antigen presentation (H-2Kb/[sequence]), respectively, 24 hours after rimantadine treatment in B16-OVA cells.
After obtaining single-cell suspensions, each sample was incubated with an Fc blocking reagent (anti-CD16/32 antibody; BioLegend, San Diego, CA). Following Fc blockade, cells were stained with fluorescent-labeled antibodies [BioLegend, BD Bioscience (San Jose, CA), or eBiosciences (Thermo Fisher Scientific, Waltham, MA)]. LIVE/DEAD Fixable Cell Staining Kit (Invitrogen) was used for viability staining. […] Cells were analyzed using a BD FACS Aria II or LSR II flow cytometer (BD). Data was analyzed on FlowJo (FlowJo, LLC, Ashland, OR). […]

[22] = system: B16-OVA; test: BrdU cell cycle analysis, B16-OVA; format: cell-based, murine; settings: 24 hours; FIG. 8
Method: (§6) FIG. 8 has plots showing the BrdU cell cycle analyzed for 24 hours following treatment with rimantadine,
as §2

[23] = system: CAL-33 squamous cell carcinoma cell line; test: MTT proliferation assay, CAL-33; format: cell-based, human; settings: rimantadine alone; FIG. 13
Method: as §1, §2

[24] = system: AT84-E7/E5 tumor cells; test: Tumor volume in mice inoculated with AT84-E7/E5 tumor cells; format: in vivo; settings: 10 mg/kg IP once daily, 7 injections starting on day 8; FIG. 1A
Method: as §3, §4

[25] = system: AT-84-E7; test: BrdU cell cycle analysis, AT-84-E7; format: cell-based, murine; settings: 24 hours; FIG. 8
Method: as §6, §2

[26] = system: RAW264.7 cell line; settings: 48 hours after treatment
Method: FIGS. 7A and 7B are plots showing cell surface expression of MHC I (H-2Kd) and MHC II (I-A/I-E), respectively, on rimantadine-treated RAW264.7 48 hours after treatment. Data are shown as mean±S.E.M. Statistics were done using an unpaired t-test.
After obtaining single-cell suspensions, each sample was incubated with an Fc blocking reagent (anti-CD16/32 antibody; BioLegend, San Diego, CA). Following Fc blockade, cells were stained with fluorescent-labeled antibodies [BioLegend, BD Bioscience (San Jose, CA), or eBiosciences (Thermo Fisher Scientific, Waltham, MA)]. LIVE/DEAD Fixable Cell Staining Kit (Invitrogen) was used for viability staining. For intracellular staining, cells were processed with Foxp3/Transcription Factor Fixation/Permeabilization Concentrate and Diluent (Invitrogen). Cells were analyzed using a BD FACS Aria II or LSR II flow cytometer (BD). Data was analyzed on FlowJo (FlowJo, LLC, Ashland, OR). For each antibody, the following clones were used: CD45.2 (104), CD3e (145-2C11), CD4 (RM4-5), CD8a (5H10), CD25 (3C7, PC61), CD44 (IM7), CD62L (MEL-14), IFN-γ (XMG1.2), Foxp3 (MF23), H-2Kb (AF6-88.5), H-2Kk (36-7-5), H-2Kd (SF1-1.1), H-2Kb/[sequence] (eBio25-D1.16), I-A/I-E (2G9), CD49b (DX5), CD11b (M1/70), FLAG (L5), CD31 (MEC13.3), NK-T/NK Cell Antigen (U5A2-13), CD102 (3C4 (MIC2/4)), CD62P (RMP-1), CD105 (MJ7/18), CD106 (429 (MVCAM.A)), and CD162 (2PH1).

## CC12CC3CC(C)(C1)CC(N)(C3)C2 [memantine]
[1]
  proliferation (MTT): inhibit proliferation
[2]; 48 hours, FIG. 17A
  proliferation (MTT): inhibited proliferation
[2]; 72 hours, FIG. 17B
  proliferation (MTT): inhibited proliferation
[3]
  proliferation (MTT): inhibit proliferation
[4]
  MHC Class I Expression: upregulated
[5]
  proliferation (MTT): inhibit proliferation

## CC(N)C12CC3CC(CC(C3)C1)C2 (centres unmarked) [rimantadine]
[6]
  proliferation (MTT): decreased proliferation
[7]
  cell surface expression of MHC I: restored
[1]
  proliferation (MTT): inhibit proliferation
[8]
  cell cycle arrest (BrdU): Significant cell cycle arrest
[9]
  cell cycle arrest (BrdU): Significant cell cycle arrest
[2]; 48 hours, FIG. 17A
  proliferation (MTT): inhibited proliferation
[2]; 72 hours, FIG. 17B
  proliferation (MTT): inhibited proliferation
[2]; rimantadine alone, FIG. 13
  proliferation (MTT): decreased proliferation
[10]
  anti-tumor activity (tumor volume): significant anti-tumor activity
[11]
  anti-tumor effect (tumor volume) relative to E5-expressing tumors: decreased
[12]
  tumor sizes compared to control groups: statistically significant decreases in tumor sizes
[13]
  increase in recognition of model tumor antigen by B3Z cells: 3 fold
[14]
  cell cycle arrest (BrdU): induced cell cycle arrest
[15]
  cell proliferation (MTT): Suppression of cell proliferation
[16]
  proliferation of T cells: no significant effect
[3]
  proliferation (MTT): inhibit proliferation
[17]
  Tau mRNA expression: Decreases
[18]
  cell cycle arrest (BrdU): Significant cell cycle arrest
[19]
  tumor sizes compared to control groups: statistically significant decreases in tumor sizes
[20]; AT-84-E7 cells, FIG. 11A
  Stathmin mRNA expression: significant decreases
[20]; B16-OVA cells, FIG. 11B
  Stathmin mRNA expression: significant decreases
[21]
  surface expression of MHC: Significant increases
[4]
  MHC Class I Expression: upregulated
[22]
  GO/G1 cell cycle arrest: significant increases
  S phase: significant decreases
[23]
  proliferation (MTT): decreased proliferation
[24]
  tumor size compared to control groups: statistically significant decreases in tumor size
[25]
  GO/G1 cell cycle arrest: significant increases
  S phase: significant decreases
[5]
  proliferation (MTT): inhibit proliferation
[26]; H-2Kd, FIG. 7A
  MHC class I surface expression: significant increases
[26]; I-A/I-E, FIG. 7B
  MHC class II surface expression: significant increases
